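Tested at 5 concentrations; 48 h exposure; 96-well plates; endpoints linearly interpolated, else capped at highest concentration. The concentration for full growth arrest is given as TGI.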
Legend:
Assay in all cases: NCI anticancer screen, dose series, 48 h
TK-10 renal = system: TK-10 renal
HCT-116 colon = system: HCT-116 colon
DU-145 prostate = system: DU-145 prostate
HS 578T breast = system: HS 578T breast
SNB-19 CNS = system: SNB-19 CNS
786-0 renal = system: 786-0 renal
IGROV1 ovarian = system: IGROV1 ovarian
KM12 colon = system: KM12 colon
HOP-62 NSCLC = system: HOP-62 NSCLC
OVCAR-8 ovarian = system: OVCAR-8 ovarian
U251 CNS = system: U251 CNS
A549 NSCLC = system: A549 NSCLC
OVCAR-3 ovarian = system: OVCAR-3 ovarian
SF-295 CNS = system: SF-295 CNS
SK-OV-3 ovarian = system: SK-OV-3 ovarian
EKVX NSCLC = system: EKVX NSCLC
COLO 205 colon = system: COLO 205 colon
MDA-MB-435 = system: MDA-MB-435
MOLT-4 leukemia = system: MOLT-4 leukemia
HL-60(TB) leukemia = system: HL-60(TB) leukemia
RPMI-8226 leukemia = system: RPMI-8226 leukemia
HOP-92 NSCLC = system: HOP-92 NSCLC
NCI/ADR-RES ovarian = system: NCI/ADR-RES ovarian
UACC-62 melanoma = system: UACC-62 melanoma
MDA-N = system: MDA-N
RXF 393 renal = system: RXF 393 renal
HT29 colon = system: HT29 colon
HCC-2998 colon = system: HCC-2998 colon
SNB-75 CNS = system: SNB-75 CNS
OVCAR-5 ovarian = system: OVCAR-5 ovarian
CCRF-CEM leukemia = system: CCRF-CEM leukemia
NCI-H226 lung = system: NCI-H226 lung
SN12C renal = system: SN12C renal
OVCAR-4 ovarian = system: OVCAR-4 ovarian
BT-549 breast = system: BT-549 breast
SR leukemia = system: SR leukemia
SF-268 CNS = system: SF-268 CNS
PC-3 prostate = system: PC-3 prostate
SK-MEL-5 melanoma = system: SK-MEL-5 melanoma
SK-MEL-2 melanoma = system: SK-MEL-2 melanoma
HCT-15 colon = system: HCT-15 colon
SK-MEL-28 melanoma = system: SK-MEL-28 melanoma
T-47D breast = system: T-47D breast
UO-31 renal = system: UO-31 renal
SW-620 colon = system: SW-620 colon
NCI-H522 lung = system: NCI-H522 lung
M14 melanoma = system: M14 melanoma
MDA-MB-231 breast = system: MDA-MB-231 breast
MALME-3M melanoma = system: MALME-3M melanoma
ACHN renal = system: ACHN renal
A498 renal = system: A498 renal
CAKI-1 renal = system: CAKI-1 renal
SF-539 CNS = system: SF-539 CNS
LOX IMVI melanoma = system: LOX IMVI melanoma
UACC-257 melanoma = system: UACC-257 melanoma
NCI-H460 lung = system: NCI-H460 lung
NCI-H23 lung = system: NCI-H23 lung
K-562 leukemia = system: K-562 leukemia

CCN(CC)C(=S)N/N=C(\C)c1cccc(C)n1
TGI (TK-10 renal): 17 µM | TGI (HCT-116 colon): 1.34 µM | TGI (DU-145 prostate): 4.96 µM | TGI (HS 578T breast): > 81.8 µM | TGI (SNB-19 CNS): 22.2 µM | TGI (786-0 renal): 1.36 µM | TGI (IGROV1 ovarian): 12.7 µM | TGI (KM12 colon): 6.53 µM | TGI (HOP-62 NSCLC): 12.7 µM | TGI (OVCAR-8 ovarian): 16.9 µM | TGI (U251 CNS): 12.7 µM | TGI (A549 NSCLC): 11.4 µM | TGI (OVCAR-3 ovarian): 0.102 µM | TGI (SF-295 CNS): 13.4 µM | TGI (SK-OV-3 ovarian): 11.3 µM | TGI (EKVX NSCLC): 15.5 µM | TGI (COLO 205 colon): 12.1 µM | TGI (MDA-MB-435): 7.76 µM | TGI (MOLT-4 leukemia): > 71.5 µM | TGI (HL-60(TB) leukemia): 0.626 µM | TGI (RPMI-8226 leukemia): 23.4 µM | TGI (HOP-92 NSCLC): 4.49 µM | TGI (NCI/ADR-RES ovarian): 13.5 µM | TGI (UACC-62 melanoma): 1.76 µM | TGI (MDA-N): 13.7 µM | TGI (RXF 393 renal): 14.4 µM | TGI (HT29 colon): 1.78 µM | TGI (HCC-2998 colon): 9.6 µM | TGI (SNB-75 CNS): 14.1 µM | TGI (OVCAR-5 ovarian): 23.5 µM | TGI (CCRF-CEM leukemia): > 100 µM | TGI (NCI-H226 lung): 5.7 µM | TGI (SN12C renal): 13.4 µM | TGI (OVCAR-4 ovarian): 4.24 µM | TGI (BT-549 breast): 18.8 µM | TGI (SR leukemia): > 100 µM | TGI (SF-268 CNS): 12.4 µM | TGI (PC-3 prostate): 17.5 µM | TGI (SK-MEL-5 melanoma): 1.46 µM | TGI (SK-MEL-2 melanoma): 18 µM | TGI (HCT-15 colon): 18 µM | TGI (SK-MEL-28 melanoma): 6.47 µM | TGI (T-47D breast): 14.4 µM | TGI (UO-31 renal): 5.83 µM | TGI (SW-620 colon): 17.2 µM | TGI (NCI-H522 lung): 0.454 µM | TGI (M14 melanoma): 4.63 µM | TGI (MDA-MB-231 breast): 19.6 µM | TGI (MALME-3M melanoma): 7.4 µM | TGI (ACHN renal): 1.92 µM | TGI (A498 renal): 0.572 µM | TGI (CAKI-1 renal): 16.6 µM | TGI (SF-539 CNS): 1.13 µM | TGI (LOX IMVI melanoma): 2.55 µM | TGI (UACC-257 melanoma): 13.3 µM | TGI (NCI-H460 lung): 0.95 µM

CN1C2CCC1CC(CC(=O)NC(c1ccc(F)cc1)c1ccc(F)cc1)C2 (configuration not stated)
TGI (TK-10 renal): > 100 µM | TGI (HCT-116 colon): > 100 µM | TGI (DU-145 prostate): > 100 µM | TGI (HS 578T breast): > 100 µM | TGI (SNB-19 CNS): > 100 µM | TGI (786-0 renal): > 100 µM | TGI (IGROV1 ovarian): > 100 µM | TGI (KM12 colon): > 100 µM | TGI (HOP-62 NSCLC): > 100 µM | TGI (OVCAR-8 ovarian): > 100 µM | TGI (U251 CNS): > 100 µM | TGI (A549 NSCLC): > 100 µM | TGI (OVCAR-3 ovarian): > 100 µM | TGI (SF-295 CNS): > 100 µM | TGI (SK-OV-3 ovarian): > 100 µM | TGI (EKVX NSCLC): > 100 µM | TGI (COLO 205 colon): 44.2 µM | TGI (MDA-MB-435): > 100 µM | TGI (MOLT-4 leukemia): > 100 µM | TGI (HL-60(TB) leukemia): 6.66 µM | TGI (RPMI-8226 leukemia): > 100 µM | TGI (HOP-92 NSCLC): > 100 µM | TGI (NCI/ADR-RES ovarian): > 100 µM | TGI (MDA-N): > 100 µM | TGI (NCI-H23 lung): > 100 µM | TGI (RXF 393 renal): > 100 µM | TGI (HT29 colon): > 100 µM | TGI (SNB-75 CNS): > 100 µM | TGI (OVCAR-5 ovarian): > 100 µM | TGI (CCRF-CEM leukemia): 80.6 µM | TGI (NCI-H226 lung): > 100 µM | TGI (SN12C renal): > 100 µM | TGI (OVCAR-4 ovarian): > 100 µM | TGI (BT-549 breast): > 100 µM | TGI (SR leukemia): 89.5 µM | TGI (SF-268 CNS): > 100 µM | TGI (PC-3 prostate): > 100 µM | TGI (SK-MEL-5 melanoma): 45.1 µM | TGI (SK-MEL-2 melanoma): 49 µM | TGI (K-562 leukemia): > 100 µM | TGI (HCT-15 colon): > 100 µM | TGI (SK-MEL-28 melanoma): 55.1 µM | TGI (T-47D breast): > 100 µM | TGI (UO-31 renal): > 100 µM | TGI (SW-620 colon): > 100 µM | TGI (NCI-H522 lung): > 100 µM | TGI (M14 melanoma): 33.7 µM | TGI (MDA-MB-231 breast): > 100 µM | TGI (MALME-3M melanoma): 60.4 µM | TGI (ACHN renal): > 100 µM | TGI (A498 renal): > 100 µM | TGI (CAKI-1 renal): > 100 µM | TGI (SF-539 CNS): > 100 µM | TGI (LOX IMVI melanoma): > 100 µM | TGI (UACC-257 melanoma): 39.4 µM | TGI (NCI-H460 lung): > 100 µM

Source: PubChem BioAssay (NCI)
